Test results from ChEMBL document CHEMBL5620390, “A novel multifunctional mitochondrion-targeting NIR fluorophore probe inhibits tumour proliferation and metastasis through the PPARγ/ROS/β-catenin pathway” (Eur J Med Chem, 2023).
Calls of active or inactive are those of the source.

What was measured:
A-375 [1] = experiment: Inhibition of ROS generation in human A-375 cells at 1.25 uM preincubated with rosiglitazone for 2 hrs followed by wash out and compound addition for 1 hr by DCFH-DA staining based inverted fluorescence microscopic analysis; format: functional; design: scale not given: the % may be the effect or the level left
B16-F10 [2] = experiment: Inhibition of Wnt/beta-catenin signaling in mouse B16-F10 cells assessed as reduction in TCF4 expression at 1.25 uM incubated for 24 hrs; format: cell-based
B16-F10 [3] = experiment: Inhibition of Wnt/beta-catenin signaling in mouse B16-F10 cells assessed as reduction in TCF4 expression at 1.25 uM preincubated with rosiglitazone for 24 hrs followed by compound addition and measured after 24 hrs in presence of H2O2; format: cell-based
A-375 [4] = experiment: Inhibition of ROS generation in human A-375 cells preincubated with rosiglitazone for 2 hrs followed by wash out and compound addition for 1 hr by DCFH-DA staining based inverted fluorescence microscopic analysis; format: functional, cell-based
A-375 [5] = experiment: Inhibition of cell migration in human A-375 cells after 24 hrs by transwell assay; format: functional, cell-based; conditions: dose 0.31-1.25 µM
HeLa = experiment: Antiproliferative activity against human HeLa cells assessed as inhibition of cell growth at 0.31 uM after 72 hrs by MTT assay; format: functional; design: scale not given: the % may be the effect or the level left
B16-F10 [6] = experiment: Induction of ROS generation in mouse B16-F10 cells assessed as reduction in GPX1 expression level at 1.25 uM preincubated with rosiglitazone for 24 hrs followed by compound addition for 24 hrs; format: functional, cell-based
B16-F10 [7] = experiment: Induction of mitochondrial damage in mouse B16-F10 cells assessed as increase in ROS production measured upto 120 mins by DCFH-DA staining based flow cytometry analysis; format: functional, cell-based; conditions: dose 0.16-2.5 µM
B16-F10 [8] = experiment: Inhibition of cell migration in mouse B16-F10 cells after 24 hrs by transwell assay; format: functional, cell-based; conditions: dose 0.31-1.25 µM
B16-F10 [9] = experiment: Antitumor activity against mouse B16-F10 cells inoculated in mouse assessed as increase in E-cadherin expression at 2 mg/kg, ip administered every other day and measured on day 18 by immunohistochemistry analysis; format: functional, organism-based; conditions: time 18.0 day
[10] = Drug uptake in mouse B16-F10 cells implanted in C57BL/6J mouse assessed as fluorescence aggregation in tumor at 3 mg/kg, iv measured after 3 to 6 hrs; format: ADME, organism-based; conditions: in vivo, time 3-6 hrs
A-375 [11] = experiment: Inhibition of Wnt/beta-catenin signaling in human A-375 cells assessed as reduction in beta-catenin expression at 1.25 uM preincubated with rosiglitazone for 24 hrs followed by compound addition and measured after 24 hrs in presence of H2O2; format: cell-based
B16-F10 [12] = experiment: Antitumor activity against mouse B16-F10 cells inoculated in C57BL/6J mouse assessed as reduction in tumor weight at 0.5 to 2 mg/kg, ip administered every other day and measured on day 22; format: functional, organism-based; conditions: dose 0.5-2 mg/kg, time 22.0 day
A-375 [13] = experiment: Inhibition of tumor metastasis in human A-375 cells assessed as reduction in wound healing after 24 hrs; format: functional, cell-based; conditions: dose 0.08-1.25 µM
B16-F10 [14] = experiment: Antitumor activity against mouse B16-F10 cells inoculated in mouse assessed as reduction in tumor metastasis at 2 mg/kg, ip administered every other day and measured on day 18 by H and E staining based assay; format: functional, organism-based; conditions: time 18.0 day
[15] = Toxicity in C57BL/6J mouse inoculated with mouse B16-F10 cells assessed as effect on lung morphology at 2 mg/kg, ip administered every other day for 22 days by H and E staining based assay; format: organism-based; conditions: in vivo, 528 h, time 22 day
A-375 [16] = experiment: Inhibition of Wnt/beta-catenin signaling in human A-375 cells assessed as reduction in TCF4 expression at 1.25 uM incubated for 24 hrs; format: cell-based
B16-F10 [17] = experiment: Antiproliferative activity against mouse B16-F10 cells assessed as inhibition of cell growth at 0.04 to 10 uM by MTT assay; format: functional, cell-based; conditions: dose 0.04-10 µM, time 24-72 hrs, TDE = time-dependent effect
A-375 [18] = experiment: Induction of cell cycle arrest in human A-375 cells assessed as P21 protein accumulation at 0.31 to 1.25 uM after 24 hrs by Western blotting analysis; format: functional, cell-based; conditions: dose 0.31-1.25 µM
A-375 [19] = experiment: Induction of ROS generation in human A-375 cells assessed as reduction in SOD2 expression level at 1.25 uM preincubated with rosiglitazone for 24 hrs followed by compound addition for 24 hrs; format: functional, cell-based
B16-F10 [20] = experiment: Inhibition of ROS generation in mouse B16-F10 cells at 1.25 uM preincubated with rosiglitazone for 2 hrs followed by wash out and compound addition for 1 hr by DCFH-DA staining based inverted fluorescence microscopic analysis; format: functional; design: scale not given: the % may be the effect or the level left
[21] = Drug uptake in mouse B16-F10 cells implanted in C57BL/6J mouse assessed as fluorescence aggregation in liver at 3 mg/kg, iv measured after 12 hrs; format: ADME, organism-based; conditions: in vivo
[22] = Toxicity in C57BL/6J mouse inoculated with mouse B16-F10 cells assessed as effect on spleen morphology at 2 mg/kg, ip administered every other day for 22 days by H and E staining based assay; format: organism-based; conditions: in vivo, 528 h, time 22 day
B16-F10 [23] = experiment: Antitumor activity against mouse Dil-stained B16-F10 cells inoculated in zebrafish assessed as reduction in tumor growth by measuring tumor fluorescence intensity at 0.31 to 1.25 uM by confocal microscopy analysis; format: functional, cell-based; conditions: dose 0.31-1.25 µM
A-375 [24] = experiment: Antiproliferative activity against human A-375 cells assessed as inhibition of cell growth at 0.31 uM after 72 hrs by MTT assay; format: functional; design: scale not given: the % may be the effect or the level left
B16-F10 [25] = experiment: Antitumor activity against mouse B16-F10 cells inoculated in mouse assessed as reduction in spleen metastasis at 2 mg/kg, ip administered every other day and measured on day 18 by H and E staining based assay; format: functional, organism-based; conditions: time 18.0 day
A-375 [26] = experiment: Induction of ROS generation in human A-375 cells assessed as reduction in PPARgamma expression level at 1.25 uM incubated for 24 hrs; format: functional, cell-based
A-375 [27] = experiment: Inhibition of cell metastasis in human A-375 cells assessed as reduction in MMP9 protein level at 0.31 to 1.25 uM after 24 hrs by Western blotting analysis; format: functional, cell-based; conditions: dose 0.31-1.25 µM
[28] = Toxicity in C57BL/6J mouse inoculated with mouse B16-F10 cells assessed as effect on kidney morphology at 2 mg/kg, ip administered every other day for 22 days by H and E staining based assay; format: organism-based; conditions: in vivo, 528 h, time 22 day
A-375 [29] = experiment: Inhibition of cell metastasis in human A-375 cells assessed as reduction in MMP2 protein level at 0.31 to 1.25 uM after 24 hrs by Western blotting analysis; format: functional, cell-based; conditions: dose 0.31-1.25 µM
A-375 [30] = experiment: Induction of ROS generation in human A-375 cells assessed as reduction in GPX1 expression level at 0.31 to 1.25 uM incubated for 24 hrs; format: functional, cell-based; conditions: dose 0.31-1.25 µM
B16-F10 [31] = experiment: Induction of ROS generation in mouse B16-F10 cells assessed as reduction in GPX1 expression level at 0.31 to 1.25 uM incubated for 24 hrs; format: functional, cell-based; conditions: dose 0.31-1.25 µM
A-375 [32] = experiment: Induction of cell cycle arrest in human A-375 cells assessed as accumulation of cells at G0/G1 phase incubated for 24 hrs by PI staining based flow cytometry analysis (reference value: 12.05%); format: functional
A-375 [33] = experiment: Inhibition of colony formation in human A-375 cells at less than 0.63 uM by crystal violet staining based assay; format: functional, cell-based
B16-F10 [34] = experiment: Induction of mitochondrial damage in mouse B16-F10 cells assessed as increase in ROS production at 2.5 uM after 5 to 60 mins by DCFH-DA staining based flow cytometry analysis; format: functional, cell-based; conditions: time 5-60 min

CC[N+]1=C(/C=C/C2=C(Cl)C(=C/C=C3\N(CCCCCC(=O)O/C(=N/C4CCCCC4)NC4CCCCC4)c4ccccc4C3(C)C)/CCC2)C(C)(C)c2ccccc21.[Br-]
active: inhibition (B16-F10 [2]) | Activity (A-375 [4]) Dose-Dependent Effect | inhibition (A-375 [5]) Dose-Dependent Effect | Activity (B16-F10 [7]) Dose-Dependent Effect | inhibition (B16-F10 [8]) Dose-Dependent Effect | Activity (B16-F10 [9]) | Activity (B16-F10 [12]) | inhibition (A-375 [13]) Dose-Dependent Effect | Activity (B16-F10 [14]) | inhibition (A-375 [16]) | Activity (B16-F10 [17]) Tde | Activity (A-375 [18]) | Activity (B16-F10 [23]) | Activity (B16-F10 [25]) | Activity (A-375 [26]) | inhibition (A-375 [27]) | inhibition (A-375 [29]) | Activity (A-375 [30]) | Activity (B16-F10 [31]) | inhibition (A-375 [33]) | Activity (B16-F10 [34])
70%: Activity (HeLa) | Activity (A-375 [24])
>50%: Activity (A-375 [1]) | Activity (B16-F10 [20])
Non-Toxic: Activity [15] | Activity [22] | Activity [28]
45.5%: Activity (A-375 [32])
inactive: Activity (B16-F10 [3]) | Activity (B16-F10 [6]) | inhibition (A-375 [11]) | Activity (A-375 [19])
Active: Drug uptake [10] | Drug uptake [21]
